Experimental data taken from patent US20240374581A1, “SALT TYPES OF TRICYCLIC TETRAHYDRO ISOQUINOLINE DERIVATIVE” (JIANGSU HENGRUI PHARMACEUTICALS CO., LTD., priority 2021, published 2024).

Key:
[1] = Influencing factor stability study
hERG potassium channels = hERG potassium channels (Homo sapiens (Human), UniProt Q12809); assay: Blocking of hERG potassium currents (automated patch clamp, HEK293-hERG); assay type: cell-based
Procedure: The blocking of hERG potassium currents by the compound disclosed herein was tested in a stable cell strain transfected with hERG potassium channels using automated patch clamp.
Stably-expressed HEK293-hERG cell strains were subcultured at a density of 1:4 in an MEM/EBSS medium (10% FBS, 400 μg/mL G418, 1% MEM non-essential amino acid solution (100×), and 1% sodium pyruvate solution) and subjected to an automated patch clamp experiment within 48-72 h after the start of the culture. On the day of the experiment, the cells were digested with 0.25% pancreatin, then centrifuged, collected, and resuspended in an extracellular fluid (140 mM NaCl, 4 mM KCl, 1 mM MgCl2, 2 mM CaCl2, 5 mM D-glucose monohydrate, 10 mM Hepes, pH 7.4, 298 mOsm) to form a cell suspension. The cell suspension was placed on the cell bank of the Patchliner instrument that transferred the cells to the chip (NPC-16) using a negative pressure controller. The negative pressure drew individual cells to the wells of the chip. […] Data were recorded and analyzed using the HEAK Patchmaster, HEAK EPC10 patch clamp amplifier (Nanion), Pathliner software and Pathcontrol HTsoftware, and the current of the compound at each concentration and the current of the blank control were analyzed.

Sequence of hERG potassium channels (Q12809 whole entry): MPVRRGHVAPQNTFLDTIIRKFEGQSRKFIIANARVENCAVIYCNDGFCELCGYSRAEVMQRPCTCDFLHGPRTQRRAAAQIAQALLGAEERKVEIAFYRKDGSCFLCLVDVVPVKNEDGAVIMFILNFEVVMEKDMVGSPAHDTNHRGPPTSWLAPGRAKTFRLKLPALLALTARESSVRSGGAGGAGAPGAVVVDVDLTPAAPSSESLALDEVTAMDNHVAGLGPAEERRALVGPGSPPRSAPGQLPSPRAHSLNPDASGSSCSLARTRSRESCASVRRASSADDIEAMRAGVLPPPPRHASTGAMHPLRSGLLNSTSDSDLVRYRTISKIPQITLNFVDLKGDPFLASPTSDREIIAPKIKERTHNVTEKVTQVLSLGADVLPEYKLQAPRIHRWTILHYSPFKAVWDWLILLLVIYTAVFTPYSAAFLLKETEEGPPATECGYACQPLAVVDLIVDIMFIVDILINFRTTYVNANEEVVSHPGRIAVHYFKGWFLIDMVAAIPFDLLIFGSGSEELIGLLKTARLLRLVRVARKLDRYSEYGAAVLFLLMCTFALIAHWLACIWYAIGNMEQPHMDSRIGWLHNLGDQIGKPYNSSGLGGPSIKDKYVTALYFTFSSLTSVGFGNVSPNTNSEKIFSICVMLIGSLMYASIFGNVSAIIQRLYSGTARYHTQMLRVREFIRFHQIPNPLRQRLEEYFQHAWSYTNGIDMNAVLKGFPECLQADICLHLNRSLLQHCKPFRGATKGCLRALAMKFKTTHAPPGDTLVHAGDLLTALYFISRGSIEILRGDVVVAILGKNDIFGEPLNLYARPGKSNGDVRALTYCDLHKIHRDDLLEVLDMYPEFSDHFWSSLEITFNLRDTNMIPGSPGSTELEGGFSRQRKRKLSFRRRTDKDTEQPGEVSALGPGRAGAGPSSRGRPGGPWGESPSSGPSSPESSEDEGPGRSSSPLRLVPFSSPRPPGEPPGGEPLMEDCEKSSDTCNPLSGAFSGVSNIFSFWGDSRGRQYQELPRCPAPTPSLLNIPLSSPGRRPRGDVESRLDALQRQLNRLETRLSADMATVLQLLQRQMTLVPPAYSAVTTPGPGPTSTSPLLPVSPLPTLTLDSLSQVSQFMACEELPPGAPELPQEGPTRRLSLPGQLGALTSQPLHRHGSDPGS

SMILES: [2H]C1([2H])Oc2cc3c(cc2O1)[C@@H](c1ccc(NC2CN(CCCF)C2)cn1)N(CC(F)(F)CO)[C@H](C)C3 [Compound 1, 2,2-Difluoro-3-((5S,7R)-5-(5-((1-(3-fluoropropyl)azetidin-3-yl)amino)pyridin-2-yl)-7-methyl-7,8-dihydro-[1,3]dioxolo[4,5-g]isoquinolin-6(5H)-yl-2,2-d2)propan-1-ol]
- Crystal form ([1]; 40° C., 1 month): Amorphous form
- Purity (%) ([1]; 40° C., 1 month): 95.4%
- Crystal form ([1]; 40° C., 5 days): Amorphous form
- Purity (%) ([1]; 40° C., 5 days): 96.7%
- Crystal form ([1]; 40° C., 10 days): Amorphous form
- Purity (%) ([1]; 40° C., 10 days): 96.5%
- Crystal form ([1]; 60° C., 1 month): Amorphous form
- Purity (%) ([1]; 60° C., 1 month): 87.6%
- Crystal form ([1]; 60° C., 5 days): Amorphous form
- Purity (%) ([1]; 60° C., 5 days): 95.7%
- Crystal form ([1]; 60° C., 10 days): Amorphous form
- Purity (%) ([1]; 60° C., 10 days): 94.2%
- behaviour under the high-humidity conditions (conclusion) ([1]; 75% RH and 92.5% RH, 30 days): deliquesced
- Crystal form ([1]; 75% RH, 1 month): Deliquescence
- Purity (%) ([1]; 75% RH, 1 month): 96.9%
- Crystal form ([1]; 75% RH, 5 days): Amorphous form
- Purity (%) ([1]; 75% RH, 5 days): 97.0%
- Crystal form ([1]; 75% RH, 10 days): Amorphous form
- Purity (%) ([1]; 75% RH, 10 days): 97.0%
- Crystal form ([1]; 92.5% RH, 1 month): Deliquescence
- Purity (%) ([1]; 92.5% RH, 1 month): 97.0%
- Crystal form ([1]; 92.5% RH, 5 days): Amorphous form
- Purity (%) ([1]; 92.5% RH, 5 days): 96.9%
- Crystal form ([1]; 92.5% RH, 10 days): Amorphous form
- Purity (%) ([1]; 92.5% RH, 10 days): 97.0%
- Crystal form ([1]; 4500 Lux, 1 month): Amorphous form
- Purity (%) ([1]; 4500 Lux, 1 month): 71.7%
- Crystal form ([1]; 4500 Lux, 5 days): Amorphous form
- Purity (%) ([1]; 4500 Lux, 5 days): 94.0%
- Crystal form ([1]; 4500 Lux, 10 days): Amorphous form
- Purity (%) ([1]; 4500 Lux, 10 days): 89.9%
- Crystal form ([1]; Initial, 0 days): Amorphous form
- Purity (%) ([1]; Initial, 0 days): 97.1%
- IC50 (hERG potassium channels): > 30 µM
